Target: Paired box protein Pax-2 (Homo sapiens, UniProt Q02962)
Test: Inhibition of pax2 (unknown origin) in human SK-OV-3 cells measured after 24 hrs by immunoblotting analysis

Chain of Paired box protein Pax-2 (Q02962 whole entry): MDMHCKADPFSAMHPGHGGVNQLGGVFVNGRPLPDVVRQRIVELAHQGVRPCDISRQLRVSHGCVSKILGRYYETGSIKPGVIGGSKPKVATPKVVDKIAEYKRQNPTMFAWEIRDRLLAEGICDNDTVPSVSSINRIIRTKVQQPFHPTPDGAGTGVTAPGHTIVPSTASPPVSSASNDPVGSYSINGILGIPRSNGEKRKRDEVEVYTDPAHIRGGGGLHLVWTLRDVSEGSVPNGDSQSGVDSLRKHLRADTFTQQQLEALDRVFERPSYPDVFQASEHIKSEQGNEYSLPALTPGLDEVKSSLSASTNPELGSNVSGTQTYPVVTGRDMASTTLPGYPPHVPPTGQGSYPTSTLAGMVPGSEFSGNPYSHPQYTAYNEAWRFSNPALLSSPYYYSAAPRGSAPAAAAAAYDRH

- IC50: 1500 nM
SMILES: Cc1ccc(C)c(N2CCN(c3c(C)c(C)nc4ncnn34)CC2)c1

Reference: BindingDB's records for doi:10.1016/j.ejmech.2023.115101 (n/a, 2023)
